Assays:
[1] = system: Casein kinase I isoform gamma-3 (Homo sapiens), Q9Y6M4 [UNDEFINED MUTATION]; assay: Inhibition of recombinant human CK1gamma3 K91E/R174G/E302D mutant (1 to 330 residues) assessed as residual activity at 1 uM using KRRRALS(p)VASLPGL as substrate incubated for 40 mins in presence of [gamma-33ATP] by scintillation counting based radiometry assay relative to control
[2] = system: Platelet-derived growth factor receptor alpha (Homo sapiens), P16234 [D842V]; assay: Inhibition of human PDGFRalpha D842V mutant (550 to end residues) assessed as residual activity at 1 uM using GGMEDIYFEFMGGKKK as substrate measured after 40 mins in presence of [gamma33P]ATP by scintillation counting method relative to control
Sequence of Platelet-derived growth factor receptor alpha (Homo sapiens), P16234 [D842V] (P16234 whole entry D842V): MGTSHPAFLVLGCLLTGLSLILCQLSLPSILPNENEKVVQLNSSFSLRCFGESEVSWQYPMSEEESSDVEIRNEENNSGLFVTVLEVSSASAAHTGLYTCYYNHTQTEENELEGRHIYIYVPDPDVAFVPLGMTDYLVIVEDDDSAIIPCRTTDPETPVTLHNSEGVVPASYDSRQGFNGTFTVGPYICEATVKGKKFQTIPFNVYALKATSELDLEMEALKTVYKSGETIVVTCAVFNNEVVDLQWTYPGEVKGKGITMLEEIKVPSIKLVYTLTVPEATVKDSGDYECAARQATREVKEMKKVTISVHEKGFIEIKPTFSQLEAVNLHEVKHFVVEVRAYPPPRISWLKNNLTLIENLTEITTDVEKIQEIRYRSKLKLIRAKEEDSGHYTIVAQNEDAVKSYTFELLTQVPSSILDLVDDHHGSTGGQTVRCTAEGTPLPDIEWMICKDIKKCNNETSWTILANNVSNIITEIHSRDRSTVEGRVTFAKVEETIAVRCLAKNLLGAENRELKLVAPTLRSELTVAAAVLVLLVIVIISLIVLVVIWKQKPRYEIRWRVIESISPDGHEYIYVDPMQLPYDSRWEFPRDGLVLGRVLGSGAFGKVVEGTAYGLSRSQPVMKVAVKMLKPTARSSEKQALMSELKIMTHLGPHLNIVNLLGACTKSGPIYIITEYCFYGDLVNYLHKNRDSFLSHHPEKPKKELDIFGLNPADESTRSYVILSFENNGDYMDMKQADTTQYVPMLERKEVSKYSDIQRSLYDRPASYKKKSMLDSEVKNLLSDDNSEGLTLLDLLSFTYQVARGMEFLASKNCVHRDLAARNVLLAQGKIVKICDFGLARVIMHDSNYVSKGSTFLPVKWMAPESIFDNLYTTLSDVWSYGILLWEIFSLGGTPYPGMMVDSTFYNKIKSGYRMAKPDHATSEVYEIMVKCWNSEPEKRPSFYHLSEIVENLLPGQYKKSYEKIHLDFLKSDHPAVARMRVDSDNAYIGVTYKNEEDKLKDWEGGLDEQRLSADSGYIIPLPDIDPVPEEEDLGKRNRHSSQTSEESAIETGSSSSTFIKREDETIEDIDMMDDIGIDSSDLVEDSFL

[3] = molecular target: Dual specificity protein kinase CLK2 (Homo sapiens) (UniProt P49760); assay: Inhibition of recombinant human CLK2 (138 to end residues) assessed as residual activity at 1 uM using YRRAAVPPSPSLSRHSSPHQS(p)EDEEE as substrate incubated 40 mins in presence of [gamma-33ATP] by scintillation counting based radiometry assay relative to control
[4] = molecular target: Cyclin-dependent kinase 5/CDK5 activator 1 (Homo sapiens) (UniProt Q00535+Q15078); assay: Inhibition of recombinant full length human CDK5/p25 assessed as residual activity at 1 uM using histone H1 as substrate incubated for 40 mins in presence of [gamma-33ATP] by scintillation counting based radiometry assay relative to control; format: protein-complex assay
[5] = molecular target: Serine/threonine-protein kinase Nek9 (Homo sapiens) (UniProt Q8TD19); assay: Inhibition of recombinant human NEK9 (1 to 324 residues) assessed as residual activity at 1 uM using myelin basic protein as substrate measured after 40 mins in presence of [gamma33P]ATP by scintillation counting method relative to control
[6] = molecular target: Serine/threonine-protein kinase ULK1 (Homo sapiens) (UniProt O75385); assay: Inhibition of human ULK1 (1 to 314 residues) assessed as residual activity at 1 uM using casein as substrate measured after 40 mins in presence of [gamma33P]ATP by scintillation counting method relative to control
Sequence of Serine/threonine-protein kinase ULK1 (Homo sapiens) (O75385 whole entry, the tested form may be a part): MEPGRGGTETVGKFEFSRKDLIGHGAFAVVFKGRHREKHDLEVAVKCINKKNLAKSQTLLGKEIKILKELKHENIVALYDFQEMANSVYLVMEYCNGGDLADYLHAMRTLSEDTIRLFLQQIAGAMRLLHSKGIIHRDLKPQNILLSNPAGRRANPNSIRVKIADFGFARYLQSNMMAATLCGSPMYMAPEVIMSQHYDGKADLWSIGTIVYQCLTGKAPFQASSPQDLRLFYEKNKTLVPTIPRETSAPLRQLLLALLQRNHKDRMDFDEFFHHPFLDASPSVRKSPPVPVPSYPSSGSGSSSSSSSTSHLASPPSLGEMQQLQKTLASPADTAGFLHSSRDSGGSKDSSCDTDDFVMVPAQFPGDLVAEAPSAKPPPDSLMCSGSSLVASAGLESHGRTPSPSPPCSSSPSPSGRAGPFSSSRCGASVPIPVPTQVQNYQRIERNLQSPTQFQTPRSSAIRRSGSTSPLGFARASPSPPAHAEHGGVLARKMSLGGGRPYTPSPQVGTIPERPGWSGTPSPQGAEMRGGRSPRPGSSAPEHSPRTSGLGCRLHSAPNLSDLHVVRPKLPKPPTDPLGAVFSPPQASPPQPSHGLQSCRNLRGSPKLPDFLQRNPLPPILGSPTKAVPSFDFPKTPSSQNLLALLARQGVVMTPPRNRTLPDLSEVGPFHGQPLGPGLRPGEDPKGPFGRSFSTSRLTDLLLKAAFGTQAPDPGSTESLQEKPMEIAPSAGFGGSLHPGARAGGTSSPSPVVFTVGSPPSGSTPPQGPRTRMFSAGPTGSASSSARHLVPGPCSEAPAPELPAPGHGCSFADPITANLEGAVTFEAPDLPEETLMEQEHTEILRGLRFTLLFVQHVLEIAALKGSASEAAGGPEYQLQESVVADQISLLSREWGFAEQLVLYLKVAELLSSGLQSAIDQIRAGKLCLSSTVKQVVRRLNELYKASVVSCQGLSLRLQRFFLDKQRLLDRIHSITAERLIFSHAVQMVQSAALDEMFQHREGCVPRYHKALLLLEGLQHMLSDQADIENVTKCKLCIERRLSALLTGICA

[7] = molecular target: 5'-AMP-activated protein kinase catalytic subunit alpha-1 (Homo sapiens) (UniProt Q13131); assay: Inhibition of recombinant full length human AMPKalpha1 assessed as residual activity at 1 uM using AMARAASAAALAR as substrate incubated for 40 mins in presence of [gamma-33ATP] by scintillation counting based radiometry assay relative to control
[8] = molecular target: CDK3/Cyclin E (Homo sapiens) (UniProt P24864+Q00526); assay: Inhibition of recombinant full length human CDK3/CyclinE assessed as residual activity at 1 uM using Histone H1 as substrate incubated for 40 mins in presence of [gamma-33ATP] by scintillation counting based radiometry assay relative to control; format: protein-complex assay
Sequence of CDK3/Cyclin E (Homo sapiens) (P24864 whole entry, looked up): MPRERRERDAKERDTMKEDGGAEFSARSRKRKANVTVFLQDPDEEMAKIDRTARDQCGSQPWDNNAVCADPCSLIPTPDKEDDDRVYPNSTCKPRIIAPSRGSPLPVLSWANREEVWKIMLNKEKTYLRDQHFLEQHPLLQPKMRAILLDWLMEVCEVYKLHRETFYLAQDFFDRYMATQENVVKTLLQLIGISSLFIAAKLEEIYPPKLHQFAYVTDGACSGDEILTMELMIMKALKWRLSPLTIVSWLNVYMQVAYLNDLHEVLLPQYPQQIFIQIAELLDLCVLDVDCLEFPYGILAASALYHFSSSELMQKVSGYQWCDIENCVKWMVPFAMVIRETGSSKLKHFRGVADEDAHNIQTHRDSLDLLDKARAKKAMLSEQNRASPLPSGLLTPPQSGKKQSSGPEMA
Sequence of CDK3/Cyclin E (Homo sapiens) (Q00526 whole entry, looked up): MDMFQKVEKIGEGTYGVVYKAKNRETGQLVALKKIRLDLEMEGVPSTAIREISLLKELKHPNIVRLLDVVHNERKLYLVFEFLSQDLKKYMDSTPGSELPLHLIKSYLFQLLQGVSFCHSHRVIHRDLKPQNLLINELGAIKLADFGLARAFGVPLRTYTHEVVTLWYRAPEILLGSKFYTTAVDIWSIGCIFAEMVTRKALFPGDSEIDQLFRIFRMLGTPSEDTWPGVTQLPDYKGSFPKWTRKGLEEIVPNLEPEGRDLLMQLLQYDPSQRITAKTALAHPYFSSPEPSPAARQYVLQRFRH

[9] = molecular target: Cyclin-dependent kinase 2/cyclin E1 (Homo sapiens) (UniProt P24864+P24941); assay: Inhibition of recombinant full length human CDK2/CyclinE assessed as residual activity at 1 uM using Histone H1 as substrate incubated for 40 mins in presence of [gamma-33ATP] by scintillation counting based radiometry assay relative to control; format: protein-complex assay
Homo sapiens = species: Homo sapiens; assay: Inhibition of recombinant full-length human PI3K p110delta/p85alpha N253S mutant at 1 uM assessed as residual activity at 1 uM using phosphatidylinositol-4, 5-bisphosphate as substrate measured after 40 mins by fluorescence assay
[10] = molecular target: Focal adhesion kinase 1 (Homo sapiens) (UniProt Q05397); assay: Inhibition of recombinant human FAK (411 to 686 residues) assessed as residual activity at 1 uM using EEEEYEEEEEEYYIIEEEEEEYEEEEEEYYEEEEEEKKKK as substrate at 40 mins in presence of [gamma-33ATP] by scintillation counting based radiometry assay relative to control
[11] = molecular target: Serine/threonine-protein kinase 35 (Homo sapiens) (UniProt Q8TDR2); assay: Inhibition of recombinant full length human CLIK1 assessed as residual activity at 1 uM using RSRSRSRSRSRS as substrate incubated 40 mins in presence of [gamma-33ATP] by scintillation counting based radiometry assay relative to control
[12] = molecular target: Leukocyte tyrosine kinase receptor (Homo sapiens) (UniProt P29376); assay: Inhibition of recombinant human LTK (450 to end residues) assessed as residual activity at 1 uM using GEEPLYWSFPAKKK as substrate after 40 mins in presence of [gamma-33ATP] by scintillation counting based radiometry assay relative to control
[13] = molecular target: Serine/threonine-protein kinase NLK (Homo sapiens) (UniProt Q9UBE8); assay: Inhibition of recombinant human NLK (121 to end residues) assessed as residual activity at 1 uM using myelin basic protein as substrate measured after 40 mins in presence of [gamma33P]ATP by scintillation counting method relative to control
[14] = system: Angiopoietin-1 receptor (Homo sapiens), Q02763 [Q939H,Q940H,R849W]; assay: Inhibition of human Tie2 Q939H/Q940H/R849W mutant (771 to end residues) assessed as residual activity at 1 uM using EFPIYDFLPAKKK as substrate measured after 40 mins in presence of [gamma33P]ATP by scintillation counting method relative to control
Sequence of Angiopoietin-1 receptor (Homo sapiens), Q02763 [Q939H,Q940H,R849W] (Q02763 whole entry R849W/Q939H/Q940H): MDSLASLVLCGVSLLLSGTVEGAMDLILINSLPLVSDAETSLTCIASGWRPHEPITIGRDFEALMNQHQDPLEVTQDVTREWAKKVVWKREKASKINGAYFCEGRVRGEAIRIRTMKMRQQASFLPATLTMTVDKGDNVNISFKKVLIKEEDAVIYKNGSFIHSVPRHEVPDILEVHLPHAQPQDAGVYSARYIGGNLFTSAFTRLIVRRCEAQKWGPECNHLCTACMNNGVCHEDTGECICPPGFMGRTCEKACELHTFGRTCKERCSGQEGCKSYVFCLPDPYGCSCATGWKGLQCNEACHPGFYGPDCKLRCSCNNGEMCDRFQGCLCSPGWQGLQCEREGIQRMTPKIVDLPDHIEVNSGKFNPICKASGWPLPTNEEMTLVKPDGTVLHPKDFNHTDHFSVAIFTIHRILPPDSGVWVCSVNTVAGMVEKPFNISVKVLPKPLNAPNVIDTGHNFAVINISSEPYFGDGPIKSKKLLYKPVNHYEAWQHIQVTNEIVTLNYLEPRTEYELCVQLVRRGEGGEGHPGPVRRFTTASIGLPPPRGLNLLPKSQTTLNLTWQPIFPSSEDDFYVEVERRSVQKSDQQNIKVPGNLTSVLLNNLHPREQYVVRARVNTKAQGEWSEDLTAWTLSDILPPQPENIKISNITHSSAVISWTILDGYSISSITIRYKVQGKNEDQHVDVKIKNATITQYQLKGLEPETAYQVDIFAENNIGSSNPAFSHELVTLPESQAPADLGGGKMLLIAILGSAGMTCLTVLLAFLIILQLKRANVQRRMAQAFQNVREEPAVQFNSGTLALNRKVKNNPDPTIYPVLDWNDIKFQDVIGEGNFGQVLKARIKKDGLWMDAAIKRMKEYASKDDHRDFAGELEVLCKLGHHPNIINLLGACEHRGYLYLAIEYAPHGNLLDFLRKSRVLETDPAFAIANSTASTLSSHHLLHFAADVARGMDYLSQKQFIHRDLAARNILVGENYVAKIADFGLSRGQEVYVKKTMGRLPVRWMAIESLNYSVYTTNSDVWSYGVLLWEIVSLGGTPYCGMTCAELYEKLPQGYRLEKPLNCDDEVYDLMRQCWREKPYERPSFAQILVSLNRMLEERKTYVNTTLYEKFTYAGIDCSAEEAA

[15] = molecular target: Muscle, skeletal receptor tyrosine-protein kinase (Homo sapiens) (UniProt O15146); assay: Inhibition of recombinant human MUSK (530 to end residues) assessed as residual activity at 1 uM using myelin basic protein as substrate measured after 40 mins in presence of [gamma33P]ATP by scintillation counting method relative to control
[16] = molecular target: Rhodopsin kinase GRK7 (Homo sapiens) (UniProt Q8WTQ7); assay: Inhibition of recombinant full length human GRK7 assessed as residual activity at 1 uM using casein as substrate at 40 mins in presence of [gamma-33ATP] by scintillation counting based radiometry assay relative to control
[17] = molecular target: Mitogen-activated protein kinase 8 (Homo sapiens) (UniProt P45983); assay: Inhibition of human JNK1alpha1 assessed as residual activity at 1 uM using ATF2 as substrate after 40 mins by [gamma-33ATP] radiometric assay relative to control
[18] = molecular target: SRSF protein kinase 3 (Homo sapiens) (UniProt Q9UPE1); assay: Inhibition of recombinant full-length human MSSK1 assessed as residual activity at 1 uM using ERMRPRKRQGSVRRRV as substrate measured after 40 mins in presence of [gamma33P]ATP by scintillation counting method relative to control
[19] = molecular target: Epidermal growth factor receptor (Homo sapiens) (UniProt P00533); assay: Inhibition of recombinant human EGFR (696 to end residues) assessed as residual activity at 1 uM using poly(Glu, Tyr) 4:1 as substrate at 40 mins in presence of [gamma-33ATP] by scintillation counting based radiometry assay relative to control
GSK-3beta (H350L mutant) = GSK-3beta (H350L mutant) (Homo sapiens, UniProt P49841, H350L); assay: Inhibition of human GSK-3beta H350L mutant (2 to end residues) assessed as residual activity at 1 uM using phospho GS2 peptide as substrate after 40 mins by [gamma-33ATP] radiometric assay relative to control; conditions: human GSK-3beta H350L mutant enzyme (residues 2 to end), probe phospho GS2 peptide, read-out: Activity
Sequence of GSK-3beta (H350L mutant) (P49841 whole entry, looked up, stated change not applied, the tested form may be a part): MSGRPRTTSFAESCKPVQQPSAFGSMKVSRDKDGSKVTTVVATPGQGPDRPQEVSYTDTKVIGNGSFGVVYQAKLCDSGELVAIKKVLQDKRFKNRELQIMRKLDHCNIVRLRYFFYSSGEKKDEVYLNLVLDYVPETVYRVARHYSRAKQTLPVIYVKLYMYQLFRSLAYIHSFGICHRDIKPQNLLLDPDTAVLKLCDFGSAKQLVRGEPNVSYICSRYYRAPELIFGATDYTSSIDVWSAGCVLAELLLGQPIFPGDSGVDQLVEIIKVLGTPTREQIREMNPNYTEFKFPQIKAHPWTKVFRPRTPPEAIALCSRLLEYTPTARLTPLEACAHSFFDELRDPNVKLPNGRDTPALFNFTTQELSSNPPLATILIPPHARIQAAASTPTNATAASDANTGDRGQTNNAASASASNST

Sequence of Casein kinase I isoform gamma-3 (Homo sapiens), Q9Y6M4 [UNDEFINED MUTATION] (Q9Y6M4 whole entry, looked up, stated change not applied, the tested form may be a part, canonical isoform): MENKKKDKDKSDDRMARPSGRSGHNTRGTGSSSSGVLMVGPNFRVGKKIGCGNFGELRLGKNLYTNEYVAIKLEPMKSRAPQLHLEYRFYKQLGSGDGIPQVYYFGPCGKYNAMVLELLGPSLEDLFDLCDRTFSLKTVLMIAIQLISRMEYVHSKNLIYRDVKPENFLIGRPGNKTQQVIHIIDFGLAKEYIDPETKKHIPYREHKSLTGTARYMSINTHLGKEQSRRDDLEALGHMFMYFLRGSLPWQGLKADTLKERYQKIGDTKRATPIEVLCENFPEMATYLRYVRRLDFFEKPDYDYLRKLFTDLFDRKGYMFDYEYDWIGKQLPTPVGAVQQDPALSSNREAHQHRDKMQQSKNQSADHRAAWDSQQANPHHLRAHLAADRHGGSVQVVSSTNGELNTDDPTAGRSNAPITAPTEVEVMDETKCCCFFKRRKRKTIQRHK

Question: `C=CCOC(=O)c1cc(-c2ccc(/C=C3/NC(=S)NC3=O)o2)ccc1Cl` was tested. Which Activity [1] did it give?
Answer: 121%

Question: And the Activity [2]?
Answer: 100%

Question: And the Activity [3]?
Answer: 38%

Question: And the Activity [4]?
Answer: 58%

Question: What about the Activity [5] of the same compound?
Answer: 101%

Question: What about the Activity [6] of the same compound?
Answer: 98%

Question: What about the Activity [7] of the same compound?
Answer: 24%

Question: And the Activity [8]?
Answer: 88%

Question: And the Activity [9]?
Answer: 58%

Question: And the Activity (Homo sapiens)?
Answer: 94%

Question: What about the Activity [10] of the same compound?
Answer: 105%

Question: What about the Activity [11] of the same compound?
Answer: 74%

Question: What about the Activity [12] of the same compound?
Answer: 104%

Question: And the Activity [13]?
Answer: 64%

Question: And the Activity [14]?
Answer: 105%

Question: What about the Activity [15] of the same compound?
Answer: 96%

Question: And the Activity [16]?
Answer: 98%

Question: And the Activity [17]?
Answer: 99%

Question: What about the Activity [18] of the same compound?
Answer: 99%

Question: What about the Activity [19] of the same compound?
Answer: 106%

Question: And the activity at 40 min, 1 µM (GSK-3beta (H350L mutant))?
Answer: 31%

Question: What does the source list for `N=C1NC(=O)/C(=C\c2ccc(-c3cccc([N+](=O)[O-])c3)o2)S1`?
Answer: Activity [1]: 97%; Activity [2]: 97%; Activity [3]: 39%; Activity [4]: 75%; Activity [5]: 103%; Activity [6]: 98%; Activity [7]: 44%; Activity [8]: 80%; Activity [9]: 62%; Activity (Homo sapiens): 98%; Activity [10]: 105%; Activity [11]: 51%; Activity [12]: 114%; Activity [13]: 59%; Activity [14]: 91%; Activity [15]: 114%; Activity [16]: 96%; Activity [17]: 101%; Activity [18]: 96%; Activity [19]: 91%; activity at 40 min, 1 µM (GSK-3beta (H350L mutant)): 17%

Source: ChEMBL document CHEMBL4334438, “Discovery of novel glycogen synthase kinase-3α inhibitors: Structure-based virtual screening, preliminary SAR and biological evaluation for treatment of acute myeloid leukemia” (Eur J Med Chem, 2019)
